Measurements taken from patent EP0437336B1, “Biophosphoryl hydrazines and their use as pesticides” (priority 1990, dated 1991).
Values after ≈ are worked out from the molar mass of the structure shown. Where two headings read alike, the source gives them in different places.

Legend:
Two-Spotted Spider Mite = test: Biological Method D: Foliar Insecticidal Activity Test, mite test; format: in vivo, Tetranychus urticae; design: key to LC50 TSM: I = inactive at concentration listed; conditions: Method D foliar test, Two-Spotted Spider Mite; for LC50: Tetranychus urticae, read-out: LC50 TSM
Procedure: (§1) Biological Method D: Foliar Insecticidal Activity Test
(§2) In evaluating the foliar insecticidal activity of the compounds of this invention against insects and mites, the following test procedures were employed.
(§3) Not all compounds were tested at each of the several concentrations stated above. Test concentrations of a compound were selected as those most likely to differentiate dose response of a particular compound toward a particular test insect.
(§4) Initial evaluations were made on one or more of the following pests:
For the mite test, infested bean (Phaseolus limensis var. Woods Prolific) leaf discs [3.18 cm (1.25") in diameter] containing about 50 mites were placed in a Petri dish lid on a moistened piece of cotton. The leaves were then sprayed to thorough wetness with the test solution using a rotating turntable, held for twenty-four hours and then the percentage killed was determined.
(§5) The mortalities obtained in this manner were plotted on logarithmic probability paper.
(§6) The rotating turntable consists of a fixed, continuously operating spray nozzle under which targets are rotated at a fixed speed and distance. If the target is a Petri dish (such as for the bean beetle, armyworm, mite, or aphid tests), the distance from the nozzle is 38.1 cm (15 inches). If the target is a Mason jar (such as for the boll weevil test), the distance from the nozzle is 17.8 cm (7 inches). The nozzle is located 8 inches from the rotating shaft. The targets on individual platforms revolve around the shaft at 1 revolution per 20 seconds but only a brief portion of this time occurs in the spray path. Targets pass only once under the nozzle and then are removed to drying hoods.
(§7) The nozzle used is a 1/4 JCO Spraying Systems (Wheaton, Illinois) air atomizing nozzle equipped with a No. 2850 fluid cap and a No. 70 air cap. At the 68.95 x 10³ Pa gauge (10 psig) air pressure used and with liquid siphon feed, 1.89 ℓ/hr [0.5 GPH (gallons per hour)] are delivered in a round spray pattern with a 21 degree spray angle. Targets are misted with spray droplets to the point that the droplets coalesce to form a uniform thin film insufficient to drown test organisms.

Mexican Bean Beetle = test: Biological Method D: Foliar Insecticidal Activity Test, Mexican Bean Beetle test; format: in vivo, Epilachna varivestis; design: key to LC50 BB 96 hrs / LC50 BB 48 hrs.: I = inactive at concentration listed; conditions: Mexican Bean Beetle; for LC50: Epilachna varivestis
Procedure: as §1, §2, §3, §4
(§8) For the Mexican Bean Beetle and Southern armyworm tests, individual lima bean (Phaseolus limeniss var. Woods' Prolific) leaves were placed on moistened pieces of filter paper in Petri dishes. The leaves were then sprayed with the test solution using a rotating turntable and allowed to dry. The dishes were then infested with 10 third instar larvae of either the Mexican Been Beetle or the Southern Armyworm. The dishes were then covered. Percent mortality was determined for each species and spray concentration at 48 and 96 hours after treatment.
as §5, §6, §7

Green Peach Aphid = test: Biological Method D: Foliar Insecticidal Activity Test, aphid test; format: in vivo, Myzus persicae; design: key: I = inactive at concentration listed
Procedure: as §1, §2, §3, §4
For the aphid test, infested broccoli (Brassica oleracea italica var. DiCicco) leaves containing about 50 aphids were placed in a Petri dish lid on a moistened piece of cotton. The leaves were then sprayed to thorough wetness with the test solution using a rotating turntable, held for twenty-four hours and then the percentage killed was determined.
as §5, §6, §7

Southern Armyworm = test: Biological Method D: Foliar Insecticidal Activity Test, Southern Armyworm test; format: in vivo, Spodoptera eridania; design: key: I = inactive at concentration listed
Procedure: as §1, §2, §3, §4, §8, §5, §6, §7

Boll Weevil [1] = test: Biological Method D: Foliar Insecticidal Activity Test, boll weevil test; format: in vivo, Anthonomous grandis; design: key: I = inactive at concentration listed
Procedure: as §1, §2, §3, §4
(§9) For the boll weevil test, 10 adult weevils were placed in a 0.24 ℓ (0.5 pint) glass Mason jar containing a small cube of apple. The weevils were confined to the jar by fiberglass screen mesh secured by a screw-type rim cap. The jars were then sprayed with the test solution using a rotating turntable; directing the spray through the mesh into the jar. The percentage killed was determined after forty-eight and ninety six hours.
as §5, §6, §7

[2] = system: southern corn rootworm, Diabrotica undecimpunctata howardi; test: Biological Method A: Corn Rootworm Screening Test (treated non-aggressive soil); conditions: soil concentration giving 90% mortality, 10 days at 27°C
Boll Weevil [3] = test: Biological Method D: Foliar Insecticidal Activity Test, boll weevil test; format: in vivo, Anthonomous grandis; conditions: Method D foliar test, Boll Weevil
Procedure: as §1, §2, §3, §4, §9, §5, §6, §7

[4] = system: southern corn rootworm, Diabrotica undecimpunctata howardi; conditions: at-planting soil application
[5] = Method D foliar test, 48 hrs, read-out: LC50 BB 48 hrs.
[6] = Method D foliar test, 96 hrs, read-out: LC50 BB 96 hrs

SMILES | LC50 TSM (Two-Spotted Spider Mite) | LC50 (Mexican Bean Beetle; [5]) | LC50 (Mexican Bean Beetle; [6]) | LC50 GPA (Green Peach Aphid) | LC50 AW 48 hrs (Southern Armyworm) | LC50 AW 96 hrs (Southern Armyworm) | LC50 BW 48 hrs (Boll Weevil [1]) | LC50 BW 96 hrs (Boll Weevil [1]) | primary nonagressive Method A crw LC90 [2] | LC50 BB 48 hrs. (Mexican Bean Beetle; Method D foliar test, 48 hrs) | LC50 BB 96 hrs (Mexican Bean Beetle; Method D foliar test, 96 hrs) | LC50 BW 48 hrs (Boll Weevil [3]) | LC50 BW 96 hrs (Boll Weevil [3]) | secondary aggressive Method C crw LC50 ([4]; rated 17 days post-infestation) | secondary aggressive Method C crw LC50 ([4]; value in brackets) | LC50 (Two-Spotted Spider Mite) | LC50 (Mexican Bean Beetle; foliar, 48 hrs, compounds a-r, read-out: LC 50 BB 48 hrs.) | LC50 (Mexican Bean Beetle; foliar, 96 hrs, compounds a-r, read-out: LC 50 BB 96 hrs.)
CCCNP(=S)(NNP(=S)(OCCC)OCCC)OCC (centres unmarked) [Compound 25] | I | 38 µg/mL (≈ 101 µM) | 13 µg/mL (≈ 34.4 µM) | I | I | I | I | I | 2.5 ppm |  |  |  |  |  |  |  |  | 
CCOP(=O)(NNP(=S)(OCC)OCC)SC(C)CC (centres unmarked) [Compound 53] | I |  |  | I | I | I |  |  | 1.6 ppm | I | I | 740 ppm | 740 ppm |  |  |  |  | 
CCOP(=S)(NNP(=S)(OCC)OC(C)CC)OCC(C)(C)C (centres unmarked) [Compound 47, N-(O-ethyl O-secbutylthiophosphoryl) N′-(O-ethyl O-neopentylthiophosphoryl) hydrazine] | I |  | 45 µg/mL (≈ 111 µM) | I | I | I | I | I | 0.09 ppm | I |  |  |  | 0.38 kg/ha | 0.34 lb/acre |  |  | 
CCOP(=O)(NNP(=S)(OCC)OC(C)C)SC(C)CC (centres unmarked) [Compound 55] | I |  | 17 µg/mL (≈ 44.9 µM) | I | I | I |  |  | 1.1 ppm | I |  | 740 ppm | 70 ppm |  |  |  |  | 
CCOP(=S)(NNP(=S)(OC)OC)OCC [Compound 36, reference compound] |  |  | 600 µg/mL (≈ 1950 µM) | I | I | I | I | I | 0.90 ppm | I |  |  |  |  |  | 79 µg/mL (≈ 256 µM) |  | 
CCOP(=S)(NNP(=S)(OCC)OC(C)(C)C(F)(F)F)OCC (centres unmarked) [Compound 40] |  | 38 µg/mL (≈ 90.8 µM) | 45 µg/mL (≈ 108 µM) | I | I | I | I | I | 1.0 ppm |  |  |  |  |  |  | 150 µg/mL (≈ 359 µM) |  | 
CCCOP(=S)(NNP(=S)(OCC)SCC)OCCC (centres unmarked) [Compound 27] | I | 150 µg/mL (≈ 394 µM) | 150 µg/mL (≈ 394 µM) | I | I | I | I |  | 5.8 ppm |  |  |  | 740 ppm |  |  |  |  | 
CCCOP(=S)(NNP(=S)(OC)OC)OCCC [Compound 37, reference compound] |  | 150 µg/mL (≈ 446 µM) | 62 µg/mL (≈ 184 µM) | I | I | I | I | I | 1.7 ppm |  |  |  |  |  |  | 450 µg/mL (≈ 1340 µM) |  | 
CCOP(=S)(NNP1(=S)N(C)CCN1C)OCC [Compound 3] | I |  |  | I | I | I | I | I | 4.5 ppm |  |  |  |  |  |  |  |  | 
CCOP(=S)(NN(C)P(=S)(OCC)OCC)OC(C)C (centres unmarked) [p] |  |  |  |  |  |  |  |  |  |  |  |  |  |  |  |  | 270 µg/mL (≈ 741 µM) | 78 µg/mL (≈ 214 µM)
CCOP(=S)(NNP1(=S)OCC(C)(C)CO1)OCC [Compound 61] | I |  |  | I | I |  |  |  | 1.1 ppm | I | I | 740 ppm | 740 ppm |  |  |  |  | 
COP(=S)(NNP(=S)(OC)OC)OC [Compound 42, reference compound] |  | 600 µg/mL (≈ 2140 µM) |  | I | I | I | I | I | I |  | I |  |  |  |  | 150 µg/mL (≈ 535 µM) |  | 
CCOP(=S)(NNP(=S)(OCC)N1CCCCC1)OCC (centres unmarked) [Compound 62] | I |  |  | I | I | I | I | I | 1.1 ppm | I | I |  |  |  |  |  |  | 
CCOP(=O)(NNP(=S)(OCC)OCC)SCC (centres unmarked) [Compound 21] | I |  |  | I | I | I | I | I | 4.7 ppm |  |  |  |  |  |  |  |  | 
CCCOP(=S)(NNP(=O)(OCC)SCC)OCCC (centres unmarked) [Compound 22] | I | 150 µg/mL (≈ 412 µM) | 115 µg/mL (≈ 316 µM) | I | I | I | I | I | I |  |  |  |  |  |  |  |  | 
CCOP(=S)(NNP(=S)(OCC)SCC)OCC (centres unmarked) [Compound 26] |  | 150 µg/mL (≈ 426 µM) | 150 µg/mL (≈ 426 µM) | I | I | I | I | I | 1.1 ppm |  |  |  |  |  |  | 640 µg/mL (≈ 1820 µM) |  | 
CCOP(=O)(NNP(=S)(OCC)OC(C)CC)SC(C)CC (centres unmarked) [Compound 56] | I | 380 µg/mL (≈ 968 µM) | 31 µg/mL (≈ 79 µM) | I | I | I | I | I | 1.1 ppm |  |  |  |  |  |  |  |  | 
CCOP(=S)(NNP(=S)(OCC)N1CCCC1)OCC (centres unmarked) [Compound 60] | I |  |  | I | I | I | I | I | 1.1 ppm | I | I |  |  |  |  |  |  | 
CCOP(=S)(NNP(=S)(OCC(C)(C)C)OCC(C)(C)C)OCC [Compound 59, reference compound] | I |  |  | I | I | I |  |  | I | I | I | 740 ppm | 740 ppm |  |  |  |  | 
